# Read-outs that look alike come from different tables or passages of the source.
# Tests used:
# hNav1.7 = target: T1, hNav1.7 (Homo sapiens, UniProt Q15858); test: Tritiated compound binding (LBA) to membranes from cells expressing hNav1.7 and the β1 subunit, competitive binding; conditions: competitive binding vs 100 pM [3H]compound, 18 h, room temperature, membranes with hNav1.7 and β1 subunit
# T1 construct: expressed in transfected cells
# Summary of the method: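 Membranes from cells expressing hNav1.7 with β1 were incubated 18 h at room temperature with 100 pM tritiated formula (I) compound and increasing test compound, in 100 mM NaCl, 20 mM Tris HCl pH 7.4, 0.01% BSA.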
# human NaV1.7 = target: T2, human NaV1.7 (Homo sapiens, UniProt Q15858); test: Patch voltage clamp electrophysiology assay (EP), NaV1.7; assay type: cell-based; conditions: HEK-293 cells stably expressing NaV1.7 with β1 subunit; whole-cell patch clamp, membrane potential −60 mV (inactivated state)
# T2 construct: permanently transfected with an expression vector containing the full-length cDNA coding for the desired human sodium channel α-subunit; expressed in transfected cells; host or cells: HEK-293
# Summary of the method: (§1)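 HEK-293 cells stably expressing human α-subunit with β1; whole-cell patch clamp (PatchXpress or manual), ambient temperature, pH 7.4 external NaCl, CsF internal. Held at −60 mV (full inactivation), stepped to −150 mV for 20 ms, then test pulse; percent current decrease after compound wash-on taken as block.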
# NaV1.5 = target: T3, NaV1.5 (Homo sapiens, UniProt Q14524); test: Patch voltage clamp electrophysiology assay (EP), NaV1.5; assay type: cell-based
# T3 construct: permanently transfected with an expression vector containing the full-length cDNA coding for the desired human sodium channel α-subunit; expressed in transfected cells; host or cells: HEK-293
# Summary of the method: as §1
# [1] = HEK-293 cells stably expressing NaV1.5 with β1 subunit, whole-cell patch clamp, membrane potential −60 mV (inactivated state), read-out: Nav1.5
# [2] = human, HEK-293 cells stably expressing human NaV1.5 with β1 subunit, pH 7.4, HEK-293 cells stably expressing NaV1.5 with β1 subunit, whole-cell patch clamp, membrane potential −60 mV (inactivated state)
# T1 sequence (Q15858 1-1977 isoform Q15858-3): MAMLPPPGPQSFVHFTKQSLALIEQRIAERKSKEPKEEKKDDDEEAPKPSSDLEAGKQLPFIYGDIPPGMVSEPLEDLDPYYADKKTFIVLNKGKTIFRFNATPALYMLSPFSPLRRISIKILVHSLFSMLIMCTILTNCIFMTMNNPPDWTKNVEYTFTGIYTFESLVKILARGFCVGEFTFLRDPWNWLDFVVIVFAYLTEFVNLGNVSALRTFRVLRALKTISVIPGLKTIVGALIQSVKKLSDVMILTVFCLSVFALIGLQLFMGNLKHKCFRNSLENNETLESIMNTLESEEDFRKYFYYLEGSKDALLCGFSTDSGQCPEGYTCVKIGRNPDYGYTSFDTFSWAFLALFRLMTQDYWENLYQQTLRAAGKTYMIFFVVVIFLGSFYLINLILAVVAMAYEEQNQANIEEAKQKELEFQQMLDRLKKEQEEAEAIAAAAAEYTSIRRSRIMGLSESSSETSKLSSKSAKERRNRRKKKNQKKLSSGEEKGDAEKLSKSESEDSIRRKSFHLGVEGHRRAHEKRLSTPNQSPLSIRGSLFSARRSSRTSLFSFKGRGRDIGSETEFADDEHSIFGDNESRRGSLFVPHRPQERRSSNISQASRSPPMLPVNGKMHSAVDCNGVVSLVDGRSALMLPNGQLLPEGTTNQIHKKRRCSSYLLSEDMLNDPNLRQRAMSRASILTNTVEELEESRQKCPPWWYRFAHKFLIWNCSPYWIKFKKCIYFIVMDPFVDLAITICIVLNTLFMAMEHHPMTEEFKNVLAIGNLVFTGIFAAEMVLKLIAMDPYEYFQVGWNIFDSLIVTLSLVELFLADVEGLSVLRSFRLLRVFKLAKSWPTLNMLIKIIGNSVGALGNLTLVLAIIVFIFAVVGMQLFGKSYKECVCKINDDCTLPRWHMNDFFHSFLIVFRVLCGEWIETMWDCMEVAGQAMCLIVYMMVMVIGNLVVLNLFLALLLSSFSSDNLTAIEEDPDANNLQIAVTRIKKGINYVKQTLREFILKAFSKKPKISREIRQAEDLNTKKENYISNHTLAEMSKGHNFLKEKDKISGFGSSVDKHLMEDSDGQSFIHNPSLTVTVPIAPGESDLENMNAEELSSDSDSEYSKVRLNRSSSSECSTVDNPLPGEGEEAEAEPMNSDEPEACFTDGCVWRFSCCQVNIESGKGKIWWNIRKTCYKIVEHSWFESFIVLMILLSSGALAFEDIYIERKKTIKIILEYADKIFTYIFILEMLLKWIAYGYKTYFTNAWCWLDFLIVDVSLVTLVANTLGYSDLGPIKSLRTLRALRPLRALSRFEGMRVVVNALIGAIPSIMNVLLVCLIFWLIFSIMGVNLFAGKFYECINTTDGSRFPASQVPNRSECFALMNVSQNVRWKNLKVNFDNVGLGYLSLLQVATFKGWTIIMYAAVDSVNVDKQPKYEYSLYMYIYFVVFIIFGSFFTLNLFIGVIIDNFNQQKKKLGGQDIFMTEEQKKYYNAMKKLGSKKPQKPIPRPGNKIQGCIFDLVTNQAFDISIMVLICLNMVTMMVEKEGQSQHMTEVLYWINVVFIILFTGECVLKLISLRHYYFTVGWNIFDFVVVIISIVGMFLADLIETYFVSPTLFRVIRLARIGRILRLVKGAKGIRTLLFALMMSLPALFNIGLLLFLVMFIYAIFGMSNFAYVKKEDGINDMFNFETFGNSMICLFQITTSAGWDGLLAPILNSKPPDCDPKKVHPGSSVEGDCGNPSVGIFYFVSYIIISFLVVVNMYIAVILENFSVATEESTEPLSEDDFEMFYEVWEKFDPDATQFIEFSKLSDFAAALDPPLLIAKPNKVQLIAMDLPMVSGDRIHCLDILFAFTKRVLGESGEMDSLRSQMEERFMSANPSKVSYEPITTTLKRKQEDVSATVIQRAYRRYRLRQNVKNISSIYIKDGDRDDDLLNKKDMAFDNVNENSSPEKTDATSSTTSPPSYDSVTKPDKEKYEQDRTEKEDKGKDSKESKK
# T1 sequence (Q07699 19-218 partner): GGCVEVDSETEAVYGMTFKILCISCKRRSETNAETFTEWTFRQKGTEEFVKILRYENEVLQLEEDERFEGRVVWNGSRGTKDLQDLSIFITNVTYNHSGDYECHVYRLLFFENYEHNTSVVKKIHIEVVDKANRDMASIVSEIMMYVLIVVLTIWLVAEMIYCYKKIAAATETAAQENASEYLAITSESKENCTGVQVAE
# T2 sequence (Q15858 1-1977 isoform Q15858-3): as the sequence (Q15858 1-1977 isoform Q15858-3) above
# T2 sequence (Q07699 19-218 partner): as the sequence (Q07699 19-218 partner) above
# T3 sequence (Q14524 whole entry): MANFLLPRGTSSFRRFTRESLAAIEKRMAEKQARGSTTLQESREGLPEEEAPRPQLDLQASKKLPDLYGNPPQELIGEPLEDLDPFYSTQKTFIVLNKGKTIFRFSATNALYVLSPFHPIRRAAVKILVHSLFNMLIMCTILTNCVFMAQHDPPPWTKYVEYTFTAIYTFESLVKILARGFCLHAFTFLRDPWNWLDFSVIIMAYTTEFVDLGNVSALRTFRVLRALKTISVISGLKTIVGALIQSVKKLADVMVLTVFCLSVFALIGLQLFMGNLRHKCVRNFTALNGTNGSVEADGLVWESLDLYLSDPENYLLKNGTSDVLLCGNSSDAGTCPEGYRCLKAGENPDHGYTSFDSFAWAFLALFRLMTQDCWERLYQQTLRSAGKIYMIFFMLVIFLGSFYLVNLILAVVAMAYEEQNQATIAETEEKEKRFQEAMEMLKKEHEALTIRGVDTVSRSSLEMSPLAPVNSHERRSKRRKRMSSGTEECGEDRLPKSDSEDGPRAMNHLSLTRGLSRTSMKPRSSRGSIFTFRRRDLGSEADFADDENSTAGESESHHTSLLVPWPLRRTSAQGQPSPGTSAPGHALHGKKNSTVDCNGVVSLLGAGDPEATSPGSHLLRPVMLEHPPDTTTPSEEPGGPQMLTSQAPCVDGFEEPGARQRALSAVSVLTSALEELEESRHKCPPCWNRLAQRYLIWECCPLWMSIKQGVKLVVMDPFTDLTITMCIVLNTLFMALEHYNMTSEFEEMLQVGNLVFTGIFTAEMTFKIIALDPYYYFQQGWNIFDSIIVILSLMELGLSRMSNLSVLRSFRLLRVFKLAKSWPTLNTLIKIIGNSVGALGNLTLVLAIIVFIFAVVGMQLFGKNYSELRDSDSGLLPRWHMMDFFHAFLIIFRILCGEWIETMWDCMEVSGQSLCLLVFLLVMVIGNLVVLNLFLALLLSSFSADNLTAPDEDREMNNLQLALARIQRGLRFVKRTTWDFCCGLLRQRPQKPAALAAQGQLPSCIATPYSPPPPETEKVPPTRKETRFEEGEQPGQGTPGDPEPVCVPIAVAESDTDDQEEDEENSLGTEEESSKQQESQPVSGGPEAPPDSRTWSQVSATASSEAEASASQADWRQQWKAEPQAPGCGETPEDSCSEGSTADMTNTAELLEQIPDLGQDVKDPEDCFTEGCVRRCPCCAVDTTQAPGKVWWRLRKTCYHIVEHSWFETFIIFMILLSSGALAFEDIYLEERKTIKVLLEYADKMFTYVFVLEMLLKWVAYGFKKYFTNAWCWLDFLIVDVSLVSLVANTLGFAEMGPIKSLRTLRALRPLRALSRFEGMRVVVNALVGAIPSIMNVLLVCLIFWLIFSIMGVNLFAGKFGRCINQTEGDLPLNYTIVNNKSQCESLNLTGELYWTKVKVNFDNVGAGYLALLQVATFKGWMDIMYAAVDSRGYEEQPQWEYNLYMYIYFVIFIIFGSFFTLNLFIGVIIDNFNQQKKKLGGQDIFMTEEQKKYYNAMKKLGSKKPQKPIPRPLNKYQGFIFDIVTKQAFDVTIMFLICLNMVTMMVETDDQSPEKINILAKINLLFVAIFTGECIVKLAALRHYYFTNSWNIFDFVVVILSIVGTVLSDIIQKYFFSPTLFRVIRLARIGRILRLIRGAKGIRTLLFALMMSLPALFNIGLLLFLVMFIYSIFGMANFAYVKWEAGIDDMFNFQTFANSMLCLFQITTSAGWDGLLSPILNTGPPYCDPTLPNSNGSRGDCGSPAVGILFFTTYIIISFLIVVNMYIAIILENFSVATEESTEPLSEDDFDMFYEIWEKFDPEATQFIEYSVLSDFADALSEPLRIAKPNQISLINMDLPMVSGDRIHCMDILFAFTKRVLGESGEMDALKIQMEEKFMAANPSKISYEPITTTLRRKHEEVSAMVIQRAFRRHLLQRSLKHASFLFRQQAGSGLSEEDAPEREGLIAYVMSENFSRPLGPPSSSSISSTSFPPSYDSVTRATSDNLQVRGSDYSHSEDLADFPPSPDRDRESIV
IC50 (hNav1.7) [nM],IC50 (human NaV1.7) [nM],Compound,IC50 (NaV1.5; [1]) [nM],IC50 (NaV1.5) [nM],IC50 (NaV1.5; [2]) [nM]
17,2000,"O=C(N[C@H](C(=O)O)C1CC1)c1cc(C2CC2)c(OCC2CCN(C(c3cc(Cl)cc(Cl)c3)C(F)(F)F)CC2)cc1F (stereo partly drawn) [Example 53, (2S)-2-cyclopropyl-2-(5-cyclopropyl-4-((1-(1-(3,5-dichlorophenyl)-2,2,2-trifluoroethyl)piperidin-4-yl)methoxy)-2-fluorobenzamido)acetic acid]",14000,,
31,1900,"CC(C)[C@H](NC(=O)c1cc(C2CC2)c(COc2cc(Cl)cc(OC(F)(F)F)c2)cc1F)C(=O)O [Example 183, (S)-2-(4-((3-chloro-5-(trifluoromethoxy)phenoxy)methyl)-5-cyclopropyl-2-fluorobenzamido)-3-methylbutanoic acid]",9200,,
590,1100,"O=C(O)[C@@H]1CCCN1C(=O)c1ccc(OCC23CC4CC(CC(C4)C2)C3)c(C(F)(F)F)c1 [Example 85, (S)-1-(4-(adamantan-1-ylmethoxy)-3-(trifluoromethyl)benzoyl)-pyrrolidine-2-carboxylic acid]",17000,,
190,660,"O=C(O)C1=CCCN1C(=O)c1cc(C2CC2)c(OCC23CC4CC(CC(C4)C2)C3)cc1F [Example 167, 1-[4-(1-adamantylmethoxy)-5-cyclopropyl-2-fluoro-benzoyl]-2,3-dihydropyrrole-5-carboxylic acid]",28000,,
7.3,94,"C[C@H]1OCN(C(=O)c2cc(C3CC3)c(OCC34CC5CC(CC(C5)C3)C4)cc2F)[C@@H]1C(=O)O [Example 162, (4S,5R)-3-[4-(1-adamantylmethoxy)-5-cyclopropyl-2-fluoro-benzoyl]-5-methyl-oxazolidine-4-carboxylic acid]",5700,,
180,1500,"O=C(O)[C@@H]1[C@H]2CC[C@H](C2)N1C(=O)c1cc(C2CC2)c(OCC23CC4CC(CC(C4)C2)C3)cc1F [Example 146, (1S,2S,4R)-3-[4-(1-adamantylmethoxy)-5-cyclopropyl-2-fluoro-benzoyl]-3-azabicyclo[2.2.1]heptane-2-carboxylic acid]",8400,,
85,1200,"C[C@@H]1C[C@@H](C(=O)O)N(C(=O)c2cc(C3CC3)c(OCC34CC5CC(CC(C5)C3)C4)cc2F)C1 [Example 150, (2S,4R)-1-[4-(1-adamantylmethoxy)-5-cyclopropyl-2-fluoro-benzoyl]-4-methyl-pyrrolidine-2-carboxylic acid]",19000,,
15,300,"CC(c1cc(Cl)cc(Cl)c1)N1CCC(COc2cc(F)c(C(=O)N3C[C@H](F)C[C@H]3C(=O)O)cc2C2CC2)CC1 (stereo partly drawn) [Example 91, (2S, 4R)-1-(5-cyclopropyl-4-((1-(1-(3,5-dichlorophenyl)ethyl)piperidin-4-yl)methoxy)-2-fluorobenzoyl)-4-fluoropyrrolidine-2-carboxylic acid]",23000,,
200,700,"CC1[C@@H](C(=O)O)N(C(=O)c2cc(C3CC3)c(OCC3(F)CCN([C@@H](C)c4cc(Cl)cc(Cl)c4)CC3)cc2F)C[C@@H]1F (stereo partly drawn) [Example 209, (2S,4R)-1-(5-cyclopropyl-4-((1-((S)-1-(3,5-dichlorophenyl)ethyl)-4-fluoropiperidin-4-yl)methoxy)-2-fluorobenzoyl)-4-fluoro-3-methylpyrrolidine-2-carboxylic acid]",20000,,
17,87,"C[C@H]1OCN(C(=O)c2cc(C3CC3)c(OCC3CCN(Cc4cc(C(F)(F)F)ccc4Cl)CC3)cc2F)[C@@H]1C(=O)O [Example 228, (4S,5R)-3-(4-((1-(2-chloro-5-(trifluoromethyl)benzyl)piperidin-4-yl)methoxy)-5-cyclopropyl-2-fluorobenzoyl)-5-methyloxazolidine-4-carboxylic acid]",25000,,
110,1200,"O=C(O)[C@@H]1C[C@@H](F)CN1C(=O)c1cc(C2CC2)c(OCC2CCN(Cc3ccc(Cl)c(Cl)c3)CC2)cc1F [Example 175, (2S,4R)-1-(5-cyclopropyl-4-((1-(3,4-dichlorobenzyl)piperidin-4-yl)methoxy)-2-fluorobenzoyl)-4-fluoropyrrolidine-2-carboxylic acid]",,,≥ 30000
58,780,"CC1(C)CCN(C(=O)c2cc(C3CC3)c(OCC34CC5CC(CC(C5)C3)C4)cc2F)C1C(=O)O (stereo in doubt) [Example 151, (2R)-1-[4-(1-adamantylmethoxy)-5-cyclopropyl-2-fluoro-benzoyl]-3,3-dimethyl-pyrrolidine-2-carboxylic acid]",5200,,
56,1300,"CC[C@H](NC(=O)c1cc(C2CC2)c(OCC23CC4CC(CC(C4)C2)C3)cc1F)C(=O)O [Example 87, (S)-2-(4-(adamantan-1-ylmethoxy)-5-cyclopropyl-2-fluorobenzamido)butanoic acid]",7100,,
15,850,"O=C(N[C@H](C(=O)O)C1CC1)c1cc(C2CC2)c(OCC2CCN([C@@H](c3ccccc3)c3cc(Cl)cc(Cl)c3)CC2)cc1F (single isomer, unassigned) [Example 119]",9400,,
6100,11000,"O=C(O)[C@@H]1CCCN1C(=O)c1cc(F)c(OCC23CC4CC(CC(C4)C2)C3)cc1F [Example 71, (4-(adamantan-1-ylmethoxy)-2,5-difluorobenzoyl)-L-proline]",,,≥ 30000
310,1600,"O=C(O)[C@@H]1CCCN1C(=O)c1cc(C2CC2)c(OC2C3CC4CC(C3)CC2C4)cc1F (stereo partly drawn) [Example 70, (S)-1-(4-(adamantan-2-yloxy)-5-cyclopropyl-2-fluorobenzoyl)pyrrolidine-2-carboxylic acid]",,,≥ 30000
22,160,"CC(c1cc(Cl)cc(Cl)c1)N1CCC(F)(COc2cc(F)c(C(=O)N3C[C@H](F)C[C@H]3C(=O)O)cc2C2CC2)CC1 (stereo partly drawn) [Example 129, (2S,4R)-1-(5-cyclopropyl-4-((1-(1-(3,5-dichlorophenyl)ethyl)-4-fluoropiperidin-4-yl)methoxy)-2-fluorobenzoyl)-4-fluoropyrrolidine-2-carboxylic acid]",9400,,
1100,5400,"O=C(O)C[C@@H]1CCN1C(=O)c1cc(C2CC2)c(OCC23CC4CC(CC(C4)C2)C3)cc1F [Example 215, 2-((S)-1-(4-((adamantan-1-yl)methoxy)-5-cyclopropyl-2-fluorobenzoyl)azetidin-2-yl)acetic acid]",,,≥ 30000
9700,8200,"COC1(C(F)(F)F)C[C@@H](C(=O)O)N(C(=O)c2cc(C3CC3)c(OCC34CC5CC(CC(C5)C3)C4)cc2F)C1 (stereo partly drawn) [Example 214, (2S)-1-(4-((Adamantan-1-yl)methoxy)-5-cyclopropyl-2-fluorobenzoyl)-4-methoxy-4-(trifluoromethyl)pyrrolidine-2-carboxylic acid]",11000,,
220,1900,"C[C@@H]1[C@H](F)CN(C(=O)c2cc(C3CC3)c(OCC34CC5CC(CC(C5)C3)C4)cc2F)[C@@H]1C(=O)O [Example 210a, (2S,3S,4S)-1-(4-(adamantan-1-ylmethoxy)-5-cyclopropyl-2-fluorobenzoyl)-4-fluoro-3-methylpyrrolidine-2-carboxylic acid]",27000,,
430,2000,"O=C(O)[C@@H]1CCCN1C(=O)c1cc(C2CC2)c(CN2CC(Oc3cc(Cl)cc(Cl)c3)C2)cc1F [Example 122, (5-cyclopropyl-4-((3-(3,5-dichlorophenoxy)azetidin-1-yl)methyl)-2-fluorobenzoyl)-L-proline]",,,≥ 30000

Compound,IC50 (hNav1.7) [nM],IC50 (human NaV1.7) [nM],IC50 (NaV1.5; [1]) [nM],IC50 (NaV1.5) [nM],IC50 (NaV1.5; [2]) [nM]
"O=C(O)[C@@H]1CC2(CC2)CN1C(=O)c1cc(C2CC2)c(OCC2(F)CCN(Cc3cc(C(F)(F)F)ccc3Cl)CC2)cc1F [Example 221, (S)-5-(4-((1-(2-chloro-5-(trifluoromethyl)benzyl)-4-fluoropiperidin-4-yl)methoxy)-5-cyclopropyl-2-fluorobenzoyl)-5-azaspiro[2.4]heptane-6-carboxylic acid]",500,1100,,16000,
"CC(C)COc1ncc(Oc2cc(F)c(C(=O)N[C@H](C(=O)O)C(C)C)cc2Cl)cc1Cl [Example 185, (S)-2-(5-chloro-4-((5-chloro-6-isobutoxypyridin-3-yl)oxy)-2-fluorobenzamido)-3-methylbutanoic acid]",100,9600,17000,,
"O=C(O)[C@@H]1C[C@@H](F)CN1C(=O)c1cc(C2CC2)c(OCC2CCN(Cc3c(Cl)cccc3Cl)CC2)cc1F [Example 222, (2S,4R)-1-(5-cyclopropyl-4-((1-(2,6-dichlorobenzyl)piperidin-4-yl)methoxy)-2-fluorobenzoyl)-4-fluoropyrrolidine-2-carboxylic acid]",13,210,,,≥ 30000
